Entries after “also recorded” stand apart in the source; their conditions may differ.
Experiments:
MLH1 = experiment: qPCR DNA repair gene expression in OE33R: MLH1; assay type: cell-based, human; settings: 10 μM, 24 hours
Experimental: OE33P radiosensitive oesophageal adenocarcinoma cells and OE33R radioresistant oesophageal adenocarcinoma cells were used to test the effects of the compound 4 on DNA repair gene expression. Cells were maintained in RPMI media supplemented with 10% foetal calf serum, penicillin (100 U/ml) and streptomycin (100 μg/ml). A total of 300,000 cells, in 2 ml media, were seeded per well in 6 well plates and left to incubate for 24 hours. The media was replaced with solutions containing 10 μM of compound 4 or the equivalent volume of DMSO vehicle control. After 24 hours of treatment, RNA was extracted from the cells and converted to cDNA. qPCR was then conducted and expression of MMS19, SMUG1 PARP1 and MLH1 was quantified, […]

mouse aortic ring = experiment: Ex vivo mouse aortic ring assay (sprout formation); settings: 10 μM; C57/BL6 mouse aortic rings in matrigel; vs 0.1% DMSO; hydrochloride
Experimental: Aortae from sex matched C57/BL6 littermates were cleansed of adipose tissue, cut into 2 mm rings and immersed in matrigel. Aortic rings (6 per experiment) were treated with 0.1% DMSO (vehicle control/VC) or with 10 μM of Compound 4, Compound 12, Compound 15 or Compound 20. Sprouts from the perimeter of the aortic ring were counted and quantified as percentage of vehicle control (VC).

Which “expression of MLH1 (qPCR)” value (MLH1) does the source give for `Cl.Oc1ccccc1/C=C/c1cnccn1` [Compound 4, (E)-2-[2-(Pyrazin-2-yl)vinyl]phenol hydrochloride] here?
Its value is “not significantly different to control”.

What about the “angiogenesis (sprout formation) in aortic rings” value (mouse aortic ring) of the same molecule?
Its value is “block angiogenesis (sprout formation); also recorded: inhibit the formation of sprouts in a statistically significant manner”.
